IC50 data for 23 compounds are collected here from ChEMBL document CHEMBL1135131, “Nicotinanilides as inhibitors of neutrophil chemotaxis” (Bioorg Med Chem Lett, 2002).

The pIC50 is the negative decadic logarithm of the IC50, by convention in mol/L. Usually IC50 stands for the concentration that gives 50% inhibition.

pIC50: −log10 of the molar value.

A short description of test [1]: Inhibition against formyl-methionyl-leucyl (FMLP) phenylalanine driven human neutrophil chemotaxis. Type of test: functional.
Test [2] has as its target T1, Interleukin-8 receptors, CXCR1/CXCR2 (Homo sapiens, UniProt P25025+P25024).
T1 sequence (P25025 whole entry): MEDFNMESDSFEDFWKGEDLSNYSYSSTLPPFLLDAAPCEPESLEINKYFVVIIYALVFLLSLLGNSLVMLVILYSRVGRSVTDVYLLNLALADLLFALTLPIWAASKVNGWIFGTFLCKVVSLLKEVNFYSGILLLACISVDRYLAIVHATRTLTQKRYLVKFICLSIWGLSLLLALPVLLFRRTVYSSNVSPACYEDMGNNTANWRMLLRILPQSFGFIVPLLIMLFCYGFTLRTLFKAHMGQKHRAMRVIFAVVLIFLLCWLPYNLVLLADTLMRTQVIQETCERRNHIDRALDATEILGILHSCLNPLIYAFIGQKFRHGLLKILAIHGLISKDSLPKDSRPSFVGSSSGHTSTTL
T1 sequence (P25024 whole entry): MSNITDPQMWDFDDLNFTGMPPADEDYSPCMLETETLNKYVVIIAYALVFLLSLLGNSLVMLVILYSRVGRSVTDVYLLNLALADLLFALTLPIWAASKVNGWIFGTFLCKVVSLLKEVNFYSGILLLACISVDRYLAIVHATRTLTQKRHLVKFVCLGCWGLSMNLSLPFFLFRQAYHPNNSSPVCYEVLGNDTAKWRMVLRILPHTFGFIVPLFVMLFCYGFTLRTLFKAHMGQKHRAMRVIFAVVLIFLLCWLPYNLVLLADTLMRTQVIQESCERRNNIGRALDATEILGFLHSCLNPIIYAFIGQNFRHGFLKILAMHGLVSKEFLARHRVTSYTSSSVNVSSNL
Nature of the test: Inhibition against GRO-alpha driven human neutrophil chemotaxis. Type of test: functional.

Test [3] addresses T2, C-X-C chemokine receptor type 2 (Homo sapiens, UniProt P25025).
T2 sequence (P25025 whole entry): T1 sequence (P25025 whole entry)
Nature of the test: Displacement of [125I]IL-8 from CHO cell membranes expressing human […] chemokine receptor 2 (CXCR2 filter mat binding assay). (In general: Loss of bound radioactivity is the signal in a displacement assay; it reports binding, not function.)

Test [4] deals with T2, C-X-C chemokine receptor type 2. As to the kind of experiment: Displacement of [125I]IL-8 from CHO cell membranes expressing human […] chemokine receptor 2.

Regarding `CC(C)CCOC(=O)COc1ccc(C(=O)Nc2ccc(F)cc2)cn1`, the pIC50 in test [1] was below 4.40. This compound showed an IC50 in test [2] of 200 nM.

With `O=C(CSc1ccc(C(=O)Nc2ccc(F)cc2)cn1)OCc1ccc(Br)cc1`, the IC50 in test [2] amounted to 83 nM.

In test [1], `CCCOC(=O)CSc1ccc(C(=O)Nc2ccc(F)cc2)cn1` showed a pIC50 below 4.40. This compound also gave an IC50 in test [2] of 46 nM.

Turning to `CCOC(=O)COc1ccc(C(=O)Nc2ccc(F)cc2)cn1`, the pIC50 in test [1] was below 4.40. In addition, the IC50 in test [2] is 160 nM.

Take `O=C(O)CSc1ccc(C(=O)Nc2ccc(F)cc2)cn1`: the pIC50 in test [3] was 5.92. The same compound registered an IC50 in test [2] above 20000 nM.

For `O=C(COc1ccc(C(=O)Nc2ccc(F)cc2)cn1)NC1CCCC1`, the IC50 in test [2] was above 20000 nM.

Compound `O=C(O)CCSc1ccc(C(=O)Nc2ccc(F)cc2)cn1` registered an IC50 in test [2] above 20000 nM.

Turning to `COC(=O)CSc1ccc(C(=O)Nc2ccc(F)cc2)cn1`, in test [4], the pIC50 is 7.49. In test [2], this compound came in with an IC50 of 42 nM.

In test [2], `O=C(COc1ccc(C(=O)Nc2ccc(F)cc2)cn1)Oc1ccccc1` gave an IC50 of 410 nM.

Take `O=C(COc1ccc(C(=O)Nc2ccc(F)cc2)cn1)OCc1cccc(F)c1`: the negative logarithm of the IC50 (pIC50) in test [1] was below 4.40. This compound also registered an IC50 in test [2] of 50 nM.

In test [1], `O=C(COc1ccc(C(=O)Nc2ccc(F)cc2)cn1)OC1CCCCC1` showed a pIC50 below 4.40. In addition, the IC50 in test [2] worked out at 220 nM.

Consider `O=C(COc1ccc(C(=O)Nc2ccc(F)cc2)cn1)Nc1cccc(Br)c1`, for which, in test [1], the pIC50 is below 4.40. Further, in test [2], the IC50 amounted to 2700 nM.

In test [1], `COC(=O)COc1ccc(C(=O)Nc2ccc(F)cc2)cn1` gave a pIC50 below 4.40. In addition, the IC50 in test [2] was 110 nM.

Take `COC(=O)CCSc1ccc(C(=O)Nc2ccc(F)cc2)cn1`: the pIC50 in test [1] was below 4.40. Further, the IC50 in test [2] worked out at 760 nM.

In test [1], `CN(C(=O)COc1ccc(C(=O)Nc2ccc(F)cc2)cn1)c1ccccc1` showed a pIC50 below 4.40. Also, the IC50 in test [2] came to 12500 nM.

In turn, `O=C(COc1ccc(C(=O)Nc2ccc(F)cc2)cn1)OCc1ccccc1` gave a pIC50 in test [1] below 4.40. Moreover, the IC50 in test [2] was found to be 94 nM.

Take `O=C(CSc1ccc(C(=O)Nc2ccc(F)cc2)cn1)OCc1cccc(F)c1`: the 50% inhibitory concentration (IC50) in test [2] came out at 43 nM.

`O=C(COc1ccc(C(=O)Nc2ccc(F)cc2)cn1)Nc1ccccc1`: the pIC50 in test [1] was below 4.40. For the same compound, the IC50 in test [2] turned out to be 1000 nM.

In test [2], `O=C(O)CCCSc1ccc(C(=O)Nc2ccc(F)cc2)cn1` yielded an IC50 of 5100 nM.

For the compound `CNC(=O)COc1ccc(C(=O)Nc2ccc(F)cc2)cn1`, the IC50 in test [2] was above 20000 nM.

As for `COC(=O)COc1ccc(NC(=O)c2ccc(F)cc2)cn1`, the IC50 in test [2] came to 360 nM.

With `O=C(COc1ccc(C(=O)Nc2ccc(F)cc2)cn1)Nc1cccnc1`, the pIC50 in test [1] is below 4.40. The compound further yielded an IC50 in test [2] of 220 nM.

Take `O=C(COc1ccc(C(=O)Nc2ccc(F)cc2)cn1)OCCCCC1CCCCC1`: the pIC50 in test [1] was below 4.40. The IC50 in test [2] amounted to 680 nM.
